Assay results published in patent US11549950B2, “Cryptic metabolites and method for activating silent biosynthetic gene clusters in diverse microorganisms” (The Trustees of Princeton University, priority 2017, dated 2023).

Key:
Assay in all cases: Antibacterial bioactivity (MIC) of keratinimicins, Table 1
C. difficile = assay type: cell-based, Clostridium difficile
Protocol: (§1) To determine antibacterial and antiviral performance, assays were performed. In one example, antibacterial assays were carried out by Micromyx, LLC in accordance with methods from the Clinical and Laboratory Standards Institute. Minimal inhibitory concentrations were determined with the following strains: S. aureus ATCC 29213, S. aureus MMX 2011, S. pneumoniae ATCC 49619, S. pyogenes MMX 6253, S. agalactiae MMX 6189, E. faecalis ATCC 29212, E. faecalis MMX 486, B. subtilis ATCC 6633, E. coli ATCC 25922, K. pneumoniae MMX 214, P. aeruginosa ATCC 27853, A. baumannii ATCC 19606, V. cholerae BAA-2163, C. difficile ATCC 700057, and B. fragilis ATCC 25285.
(§2) These compounds are bioactive. In some instances, the compounds show activity against gram-positive bacteria. For example, although they may also show activity against gram-negative targets, the bioactivity of Keratinimicin B and C (FIGS. 21B and 21C) were tested against various gram-positive targets.

S. agalactiae = assay type: cell-based, Streptococcus agalactiae
Protocol: as §1, §2

S. pyogenes = assay type: cell-based, Streptococcus pyogenes
Protocol: as §1, §2

S. aureus MSSA = assay type: cell-based, Staphylococcus aureus
Protocol: as §1, §2

S. aureus MRSA = assay type: cell-based, Staphylococcus aureus
Protocol: as §1, §2

E. faecalis VSE = assay type: cell-based, Enterococcus faecalis
Protocol: as §1, §2

E. faecalis VRE = assay type: cell-based, Enterococcus faecalis
Protocol: as §1, §2

S. pneumoniae = assay type: cell-based, Streptococcus pneumoniae
Protocol: as §1, §2

CO[C@H]1[C@H](C)O[C@@H](O[C@@H]2c3ccc(c(Cl)c3)Oc3cc4cc(c3O[C@@H]3O[C@H](CO)[C@@H](O)[C@H](O)[C@H]3O[C@H]3C[C@H](N)[C@@H](O)C(C)O3)Oc3ccc(cc3)[C@@H](O)[C@@H](NC(=O)[C@H](N)c3ccc(O)c(Cl)c3)C(=O)N[C@@H](Cc3ccccc3)C(=O)N[C@H]4C(=O)N[C@H]3C(=O)N[C@@H]2C(=O)N[C@H](C(=O)O)c2cc(O)cc(O)c2-c2cc3ccc2O)C[C@@H]1N (some centres unmarked) [Keratinimicin B]
Bioactivity (minimal inhibitory concentration) (C. difficile): 0.5 µg/mL | Bioactivity (minimal inhibitory concentration) (S. agalactiae): 1 µg/mL | Bioactivity (minimal inhibitory concentration) (S. pyogenes): 0.5 µg/mL | Bioactivity (minimal inhibitory concentration) (S. aureus MSSA): 8 µg/mL | Bioactivity (minimal inhibitory concentration) (S. aureus MRSA): 4 µg/mL | Bioactivity (minimal inhibitory concentration) (E. faecalis VSE): 4 µg/mL | Bioactivity (minimal inhibitory concentration) (E. faecalis VRE): >64 µg/mL | Bioactivity (minimal inhibitory concentration) (S. pneumoniae): 0.25 µg/mL
